Source: patent publication CN116462616A, “炔酰胺类化合物及其应用” (Jinan University, priority 2022, dated 2023)

Experiments:
[1] = target: T1, bovine serum albumin [牛血清蛋白] (Bos taurus, UniProt P02769); assay: Covalent modification of amino acid residues of a pure protein (gel fluorescence after click chemistry); format: binding; details: 10.0 μM probe, 1 mg/mL protein, 37 °C, 3 h
[2] = system: proteins of HepG2 cells [人源肝癌细胞HepG2]; assay: Covalent modification of protein amino acid residues in tumour cells (live-cell labelling, gel fluorescence); format: cell-based, human; details: HepG2, 50 μM probe, 37 °C, 3 h
[3] = target: T1, bovine serum albumin [牛血清蛋白]; assay: Selective modification of acidic amino acid residues of a pure protein (biological mass spectrometry); format: binding; details: 100 μM, 37 °C, 0.5 h
HepG2 cells [HepG2细胞] = assay: Selective modification of acidic amino acid residues in cells (biological mass spectrometry); format: cell-based, human; details: 100 μM, 37 °C, 8 h
ALDH1 = target: T2, ALDH1 (Homo sapiens, UniProt P00352); assay: Pull-down and western blot, ALDH1; format: binding; details: 50 μM, HepG2/H3255 cells, 37 °C, 5 h
T2 construct: 50μM分子探针YN-1和YN-4与HepG2/H3255细胞于37℃孵育5h; endogenous in cells; host or cells: HepG2/H3255
T2 sequence (P00352 1-501): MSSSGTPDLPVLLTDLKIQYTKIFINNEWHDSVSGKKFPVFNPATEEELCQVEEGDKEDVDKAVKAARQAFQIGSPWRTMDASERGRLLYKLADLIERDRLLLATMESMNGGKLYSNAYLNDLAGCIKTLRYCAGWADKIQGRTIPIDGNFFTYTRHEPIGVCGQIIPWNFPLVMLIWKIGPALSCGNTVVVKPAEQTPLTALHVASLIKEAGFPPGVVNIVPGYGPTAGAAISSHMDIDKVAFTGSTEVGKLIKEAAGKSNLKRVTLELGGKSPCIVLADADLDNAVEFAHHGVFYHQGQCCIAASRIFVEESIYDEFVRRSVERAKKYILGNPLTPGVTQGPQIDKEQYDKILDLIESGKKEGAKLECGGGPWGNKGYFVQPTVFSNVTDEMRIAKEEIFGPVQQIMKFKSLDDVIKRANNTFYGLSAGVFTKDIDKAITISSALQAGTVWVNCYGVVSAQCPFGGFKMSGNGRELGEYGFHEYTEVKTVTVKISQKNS

GAPDH = target: T3, GAPDH (Homo sapiens, UniProt P04406); assay: Pull-down and western blot, GAPDH; format: binding; details: 50 μM, HepG2/H3255 cells, 37 °C, 5 h
T3 construct: 50μM分子探针YN-1和YN-4与HepG2/H3255细胞于37℃孵育5h; endogenous in cells; host or cells: HepG2/H3255
T3 sequence (P04406 whole entry): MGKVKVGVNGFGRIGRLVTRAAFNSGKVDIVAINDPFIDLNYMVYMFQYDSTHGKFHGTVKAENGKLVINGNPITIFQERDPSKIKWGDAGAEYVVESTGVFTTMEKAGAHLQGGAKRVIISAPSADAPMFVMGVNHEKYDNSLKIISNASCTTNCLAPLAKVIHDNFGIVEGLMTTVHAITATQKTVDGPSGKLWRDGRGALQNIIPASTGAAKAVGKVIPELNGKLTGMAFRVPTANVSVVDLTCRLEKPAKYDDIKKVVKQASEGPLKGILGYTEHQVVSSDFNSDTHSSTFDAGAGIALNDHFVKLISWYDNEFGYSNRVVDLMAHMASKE

MEK2 = target: T4, MEK2 (Homo sapiens, UniProt P36507); assay: Pull-down and western blot, MEK2; format: binding; details: 50 μM, HepG2/H3255 cells, 37 °C, 5 h
T4 construct: 50μM分子探针YN-1和YN-4与HepG2/H3255细胞于37℃孵育5h; endogenous in cells; host or cells: HepG2/H3255
T4 sequence (P36507 whole entry): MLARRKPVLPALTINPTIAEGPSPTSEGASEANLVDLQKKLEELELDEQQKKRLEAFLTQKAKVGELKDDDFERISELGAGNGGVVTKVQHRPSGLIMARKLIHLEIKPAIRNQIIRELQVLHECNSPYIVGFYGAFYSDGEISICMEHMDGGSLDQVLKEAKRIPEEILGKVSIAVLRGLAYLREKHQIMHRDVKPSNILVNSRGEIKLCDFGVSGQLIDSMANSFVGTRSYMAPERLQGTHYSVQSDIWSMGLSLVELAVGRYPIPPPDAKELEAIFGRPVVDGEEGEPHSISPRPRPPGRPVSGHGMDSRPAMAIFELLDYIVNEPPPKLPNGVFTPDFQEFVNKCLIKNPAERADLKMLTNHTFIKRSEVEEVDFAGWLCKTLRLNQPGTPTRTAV

ECH1 = target: T5, ECH1 (Homo sapiens, UniProt Q13011); assay: Pull-down and western blot, ECH1; format: binding; details: 50 μM, HepG2/H3255 cells, 37 °C, 5 h
T5 construct: 50μM分子探针YN-1和YN-4与HepG2/H3255细胞于37℃孵育5h; endogenous in cells; host or cells: HepG2/H3255
T5 sequence (Q13011 34-328): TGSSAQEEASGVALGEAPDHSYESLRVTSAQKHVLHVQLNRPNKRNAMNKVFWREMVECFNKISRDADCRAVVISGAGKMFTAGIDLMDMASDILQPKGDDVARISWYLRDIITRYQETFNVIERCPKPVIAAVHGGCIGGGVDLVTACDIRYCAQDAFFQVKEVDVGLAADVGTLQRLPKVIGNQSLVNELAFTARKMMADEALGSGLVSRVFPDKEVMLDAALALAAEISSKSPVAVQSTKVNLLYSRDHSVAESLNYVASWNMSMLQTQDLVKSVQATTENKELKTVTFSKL

T1 sequence (P02769 25-607): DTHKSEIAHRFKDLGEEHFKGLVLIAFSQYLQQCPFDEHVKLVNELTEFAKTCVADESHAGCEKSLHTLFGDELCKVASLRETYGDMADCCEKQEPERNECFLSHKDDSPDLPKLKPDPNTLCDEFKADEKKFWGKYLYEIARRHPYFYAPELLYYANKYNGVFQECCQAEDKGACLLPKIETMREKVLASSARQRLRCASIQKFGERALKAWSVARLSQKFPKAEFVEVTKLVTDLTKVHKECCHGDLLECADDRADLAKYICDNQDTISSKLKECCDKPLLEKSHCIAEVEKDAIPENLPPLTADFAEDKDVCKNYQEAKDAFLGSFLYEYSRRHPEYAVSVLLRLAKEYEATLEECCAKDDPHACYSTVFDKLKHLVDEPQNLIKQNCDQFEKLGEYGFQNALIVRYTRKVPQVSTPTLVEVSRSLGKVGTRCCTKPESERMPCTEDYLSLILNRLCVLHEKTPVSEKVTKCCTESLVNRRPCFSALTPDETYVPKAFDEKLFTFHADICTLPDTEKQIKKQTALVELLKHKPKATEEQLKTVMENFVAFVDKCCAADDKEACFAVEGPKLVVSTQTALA

Row | SMILES | covalent labelling of bovine serum albumin [1] | covalent labelling of proteins at live-cell level [2] | selective modification of acidic amino acid residues (aspartic acid and glutamic acid) [3] | selective modification of acidic amino acid residues (aspartic acid and glutamic acid) (HepG2 cells [HepG2细胞]) | targeted binding to ALDH1 (ALDH1) | targeted binding to GAPDH (GAPDH) | targeted binding to MEK2 (MEK2) | targeted binding to ECH1 (ECH1)
1 | C#Cc1ccc(S(=O)(=O)N(C)C#C)cc1 [YN-1] | 能够共价标记牛血清蛋白 | 能够在活细胞水平共价标记蛋白 | 可选择性修饰酸性氨基酸残基天冬氨酸残基及谷氨酸残基 | 可选择性修饰酸性氨基酸残基天冬氨酸残基及谷氨酸残基 | 能靶向结合 | 能靶向结合 | 能靶向结合 | 能靶向结合
2 | C#Cc1ccc(C#CN(C)S(=O)(=O)c2ccc(C)cc2)cc1 [YN-2] | 能够共价标记牛血清蛋白 | 能够在活细胞水平共价标记蛋白 | – | – | – | – | – | –
3 | C#Cc1ccc(OCc2ccc(S(=O)(=O)N(C)C#C)cc2)cc1 [YN-3] | 能够共价标记牛血清蛋白 | 能够在活细胞水平共价标记蛋白 | – | – | – | – | – | –
